In the experiment the target is T1, human oxytocin receptor (Homo sapiens, UniProt P30559).
T1 construct: host or cells: CHO cells (pcDNA3.1 vector)
T1 sequence (P30559 1-389): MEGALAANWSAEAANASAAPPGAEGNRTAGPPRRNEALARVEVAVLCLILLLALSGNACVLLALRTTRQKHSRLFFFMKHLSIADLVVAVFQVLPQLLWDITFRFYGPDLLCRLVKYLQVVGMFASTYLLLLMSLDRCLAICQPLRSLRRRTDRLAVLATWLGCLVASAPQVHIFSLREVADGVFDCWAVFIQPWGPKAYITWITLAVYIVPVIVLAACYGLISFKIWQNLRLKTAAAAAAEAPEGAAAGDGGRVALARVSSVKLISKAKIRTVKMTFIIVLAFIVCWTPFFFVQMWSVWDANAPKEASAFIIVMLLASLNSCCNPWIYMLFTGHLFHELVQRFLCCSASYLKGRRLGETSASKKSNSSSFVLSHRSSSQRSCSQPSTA
In words: Oxytocin binding in Chinese Hamster Ovary cell membranes expressing human oxytocin receptors. As to conditions: 100 nM, CHO cell membranes, [3H]oxytocin, values without parentheses; for inhibition at 0.1 µM: read-out: OT % inhibition @ 100% nM.

SMILES strings stand for the structures.

With `O=C(c1ccc2n1Cc1ccccc1N(C(=O)c1ccc(-c3cccc4ccccc34)cc1Cl)C2)N1CCC(N2CCCC2)CC1` [Example 147, {10-[2-Chloro-4-(1-naphthyl)benzoyl]-10,11-dihydro-5H-pyrrolo[2,1-c][1,4]benzodiazepin-3-yl}[4-(1-pyrrolidinyl)-1-piperidinyl]methanone], the inhibition at 0.1 µM is 33%.
On to `Cc1cc(C(=O)N2Cc3ccc(C(=O)N4CCC(N5CCCC5)CC4)n3Cc3ccccc32)ccc1-c1ccccc1C(F)(F)F` [Example 148, (10-{[2-Methyl-2′-(trifluoromethyl)[1,1′-biphenyl]-4-yl]carbonyl}-10,11-dihydro-5H-pyrrolo[2,1-c][1,4]benzodiazepin-3-yl)[4-(1-pyrrolidinyl)-1-piperidinyl]methanone], for which the inhibition at 0.1 µM amounted to 78%.
`COc1ccccc1-c1ccc(C(=O)N2Cc3ccc(C(=O)NCCN4CCCCC4)n3Cc3ccccc32)cc1C` [Example 149, 10-[(2′-Methoxy-2-methyl[1,1′-biphenyl]-4-yl)carbonyl]-N-[2-(1-piperidinyl)ethyl]-10,11-dihydro-5H-pyrrolo[2,1-c][1,4]benzodiazepine-3-carboxamide]: the inhibition at 0.1 µM is 75%.
Regarding `Cc1ccccc1-c1ccc(C(=O)N2Cc3ccc(C(=O)NCCN4CCCCC4)n3Cc3ccccc32)cc1C` [Example 150, 10-[(2,2′-Dimethyl[1,1′-biphenyl]-4-yl)carbonyl]-N-[2-(1-piperidinyl)ethyl]-10,11-dihydro-5H-pyrrolo[2,1-c][1,4]benzodiazepine-3-carboxamide], the inhibition at 0.1 µM stood at 75%.
`COc1cccc(-c2ccc(C(=O)N3Cc4ccc(C(=O)NCCN5CCCCC5)n4Cc4ccccc43)cc2C)c1` [Example 151, 10-[(3′-Methoxy-2-methyl[1,1′-biphenyl]-4-yl)carbonyl]-N-[2-(1-piperidinyl)ethyl]-10,11-dihydro-5H-pyrrolo[2,1-c][1,4]benzodiazepine-3-carboxamide]: the inhibition at 0.1 µM amounted to 47%.
Take `COc1ccccc1-c1ccc(C(=O)N2Cc3ccc(C(=O)NCCN4CCCCC4)n3Cc3ccccc32)cc1` [Example 152, 10-[(2′-Methoxy[1,1′-biphenyl]-4-yl)carbonyl]-N-[2-(1-piperidinyl)ethyl]-10,11-dihydro-5H-pyrrolo[2,1-c][1,4]benzodiazepine-3-carboxamide]: the inhibition at 0.1 µM stood at 63%.
Same read-out and setting: to `Cc1ccccc1-c1ccc(C(=O)N2Cc3ccc(C(=O)NCCN4CCCCC4)n3Cc3ccccc32)cc1` [Example 153, 10-[(2′-Methyl[1,1′-biphenyl]-4-yl)carbonyl]-N-[2-(1-piperidinyl)ethyl]-10,11-dihydro-5H-pyrrolo[2,1-c][1,4]benzodiazepine-3-carboxamide] belongs 60%.
Take `COc1cc(C(=O)N2Cc3ccc(C(=O)NCCN4CCCCC4)n3Cc3ccccc32)ccc1-c1ccccc1C` [Example 154, 10-[(2-Methoxy-2′-methyl[1,1′-biphenyl]4-yl)carbonyl]-N-[2-(1-piperidinyl)ethyl]-10,11-dihydro-5H-pyrrolo[2,1-c][1,4]benzodiazepine-3-carboxamide]: the inhibition at 0.1 µM was 54%.
For `COc1cc(-c2ccccc2C)c(Cl)cc1C(=O)N1Cc2ccc(C(=O)NCCN3CCCCC3)n2Cc2ccccc21` [Example 155, 10-[(6-Chloro-3-methoxy-2′-methyl[1,1′-biphenyl]-4-yl)carbonyl]-N-[2-(1-piperidinyl)ethyl]-10,11-dihydro-5H-pyrrolo[2,1-c][1,4]benzodiazepine-3-carboxamide], the inhibition at 0.1 µM was found to be 56%.
For `COc1cccc(-c2ccc(C(=O)N3Cc4ccc(C(=O)NCCC5CCCN5C)n4Cc4ccccc43)cc2C)c1` (stereo not drawn) [Example 164, 10-[(3′-Methoxy-2-methyl[1′1′-biphenyl]-4-yl)carbonyl]-N-[2-(1-methyl-2-pyrrolidinyl)ethyl]-10,11-dihydro-5H-pyrrolo[2,1-c][1,4]benzodiazepine-3-carboxamide], the “OT % inhibition @ 100% nM” value came out at 54%.
As for `COc1cccc(-c2ccc(C(=O)N3Cc4ccc(C(=O)N5CCN(CCN(C)C)CC5)n4Cc4ccccc43)cc2C)c1` [Example 199, {4-[2-(Dimethylamino)ethyl]-1-piperazinyl{}10-[(3′-methoxy-2-methyl[1,1′-biphenyl]-4-yl)carbonyl]-10,11-dihydro-5H-pyrrolo[2,1-c][1,4]benzodiazepin-3-yl}methanone], the “OT % inhibition @ 100% nM” value is 84%.
For the compound `COc1cccc(-c2cc(OC)c(C(=O)N3Cc4ccc(C(=O)N5CCN(CCN6CCOCC6)CC5)n4Cc4ccccc43)cc2Cl)c1` [Example 212, {10-[(6-Chloro-3,3′-dimethoxy[1,1′-biphenyl]-4-yl)carbonyl]-10,11-dihydro-5H-pyrrolo[2,1-c][1,4]benzodiazepin-3-yl}{4-[2-(4-morpholinyl)ethyl]-1-piperazinyi}methanone], the “OT % inhibition @ 100% nM” value came out at 95%.
Still for that read-out and setting: to `COc1ccccc1-c1ccc(C(=O)N2Cc3ccc(C(=O)N4CCC[C@H]4CN4CCCC4)n3Cc3ccccc32)cc1C` [Example 259, {10-[(2′-Methoxy-2-methyl[1,1′-biphenyl]-4-yl)carbonyl]-10,11-dihydro-5H-pyrrolo[2,1-c][1,4]benzodiazepin-3-yl}[(2S)-2-(1-pyrrolidinylmethyl)pyrrolidinyl]methanone] belongs 97%; to `Cc1ccccc1-c1ccc(C(=O)N2Cc3ccc(C(=O)N4CCC[C@H]4CN4CCCC4)n3Cc3ccccc32)cc1C` [Example 260, {10-[(2,2′-Dimethyl[1,1′-biphenyl]-4-yl)carbonyl]-10,11-dihydro-5H-pyrrolo[2,1-c][1,4]benzodiazepin-3-yl}[(2S)-2-(1-pyrrolidinylmethyl)pyrrolidinyl]methanone], 102%; to `O=C(c1ccc(-c2cccc3ccccc23)cc1Cl)N1Cc2ccc(C(=O)N3CCC[C@H]3CN3CCCC3)n2Cc2ccccc21` [Example 261, {10-[2-Chloro-4-(1-naphthyl)benzoyl]-10,11-dihydro-5H-pyrrolo[2,1-c][1,4]benzodiazepin-3-yl}[(2S)-2-(1-pyrrolidinylmethyl)pyrrolidinyl]methanone], 52%.
On the same count and under the same terms, as for `COc1cc(C(=O)N2Cc3ccc(C(=O)N4CCC[C@H]4CN4CCCC4)n3Cc3ccccc32)ccc1-c1cccc2ccccc12` [Example 262, {10-[3-Methoxy-4-(1-naphthyl)benzoyl]-10,11-dihydro-5H-pyrrolo[2,1-c][1,4]benzodiazepin-3-yl}[(2S)-2-(1-pyrrolidinylmethyl)pyrrolidinyl]methanone], the figure is 76%; as for `Cc1ccccc1-c1ccc(C(=O)N2Cc3ccc(C(=O)N4CCC[C@H]4CN4CCCC4)n3Cc3ccccc32)cc1` [Example 264, {10-[(2′-Methyl[1,1′-biphenyl]-4-yl)carbonyl]-10,11-dihydro-5H-pyrrolo[2,1-c][1,4]benzodiazepin-3-yl}[(2S)-2-(1-pyrrolidinylmethyl)pyrrolidinyl]methanone], 94%; as for `COc1ccccc1-c1ccc(C(=O)N2Cc3ccc(C(=O)N4CCC[C@H]4CN4CCCC4)n3Cc3ccccc32)cc1` [Example 265, {10-[(2′-Methoxy[1,1′-biphenyl]-4-yl)carbonyl]-10,11-dihydro-5H-pyrrolo[2,1-c][1,4]benzodiazepin-3-yl}[(2S)-2-(1-pyrrolidinylmethyl)pyrrolidinyl]methanone], 100%.

As usually defined, the inhibition is the relative decrease from the control value, in per cent.

The values above are taken from patent US7109193B2, “Tricyclic diazepines tocolytic oxytocin receptor antagonists” (Wyeth, priority 2001, dated 2006).
